One data set concerns the target T1, human MAGL (Homo sapiens, UniProt Q99685).
T1 construct: recombinant MAGL enzyme (aa 2-303 RBC, internal preparation)
T1 sequence (Q99685 2-303): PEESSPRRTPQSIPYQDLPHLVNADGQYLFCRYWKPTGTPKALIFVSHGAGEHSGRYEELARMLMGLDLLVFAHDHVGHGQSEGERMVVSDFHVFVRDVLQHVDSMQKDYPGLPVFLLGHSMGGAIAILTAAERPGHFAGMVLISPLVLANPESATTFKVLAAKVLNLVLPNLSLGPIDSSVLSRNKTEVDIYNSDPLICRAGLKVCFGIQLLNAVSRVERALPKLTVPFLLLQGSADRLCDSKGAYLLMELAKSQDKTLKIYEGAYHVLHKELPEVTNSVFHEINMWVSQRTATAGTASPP
The experiment in a line: MAGL inhibition potency assay with 4-nitrophenyl acetate (4NPA) substrate, absorbance 405 nm. The format is biochemical. Particulars: read-out: MAGL Potency (Detection Method). An excerpt: Example 22: Measuring MAGL Inhibition Potency (IC50) The potency of certain compounds for inhibiting MAGL were obtained using the following assays. The monoacylglycerol lipase inhibitor screening assay kit from Cayman Chemical was used to measure the MAGL potency for the compounds in Table 6 and Table 7. Cayman's Monoacylglycerol Lipase Inhibitor Screening Assay provides a method for screening human MAGL inhibitors. MAGL hydrolyzes 4-nitrophenylacetate resulting in a yellow product, 4-nitrophenol, with an absorbance of 405-412 nm. MAGL Inhibition was measured by the following assay. Monoacylglycerol Lipase (MAGL) inhibition was measured using recombinant MAGL enzyme (aa 2-303 RBC, internal preparation) and the substrate 4-Nitrophenyl acetate (4NPA) (Sigma-Aldrich, N8130). Hydrolysis of the substrate in the presence of the enzyme was measured by absorbance at 405 nm. 10 μL of assay buffer (10 mM Tris pH 7.5, 1 mM EDTA, 0.9% DMSO) was added to a black 384-well non-binding plate with clear bottom (Greiner, 781906) for each reaction. […] DMSO control wells were included for reference. A 10.8 nM (1.8×) MAGL mix in assay buffer was prepared, with 25 μL added to each reaction well, for a final assay concentration of 6 nM. No enzyme wells received 25 μL of buffer. Plate was incubated at room temperature for 30 minutes. 35 mM solution of 4NPA in methanol was prepared daily. A 4.5×4NPA substrate solution was prepared in assay buffer and 10 μL was added to each reaction well, for a final assay concentration of 0.25 mM. Plate was spun for […] at 100 rpm before measuring absorbance using a CLARIOstar plate reader (BMG Labtech). A kinetic reading at 405 nm was done every minute for 30 minutes. Data was analyzed using the linear slope of the reaction progress curve and the average of the no-enzyme wells (background) was subtracted from the data. The background-subtracted slope data was converted to % activity using the average of wells with enzyme and DMSO vehicle. IC50 were calculated using GraphPad software (Sigmoidal dose response, variable slope equation). […] Table S provides potency measurements of MAGL inhibition measured using the Potency Assay of Example 22 above, with the following modifications described in Table C. [table]

The nature of data set [1]: Pharmacokinetic study of compounds in mice (brain exposure). The format is in vivo, male C57BL/6 mice. To be noted: oral; for AUC(0-t) / Cmax: male, C57BL/6, mouse, 5 mg/kg, Protocols B-E. Here is the method:
Example 25: Pharmacokinetic Study of Compounds in Mice
Healthy male C57BL/6 mice (8-12 weeks old) weighing between 17 to 35 g were procured from Global, India. Temperature and humidity were maintained at 22±3° C. and 30-70%, respectively and illumination was controlled to give a sequence of 12 hr light and 12 hr dark cycle. Temperature and humidity were recorded by auto-controlled data logger system. All the animals were provided laboratory rodent diet. Reverse osmosis water treated with ultraviolet light was provided ad libitum.
Protocol A: Twenty-four male mice were divided into two groups as; Group 1: 30 mg/kg/IP; Plasma and brain; Number of animals=12; Animal #1-12. Group 2: 30 mg/kg/PO; Plasma and brain; Number of animals=12; Animal #13-24. Animals in Group 1 were administered intraperitoneally with solution formulation of PSY-05-00074-001 in 5% NMP, 5% Solutol HS-15 and 90% normal saline at […] dose. Animals in Group 2 were administered orally with solution formulation of PSY-05-00074-001 in 5% NMP, 5% Solutol HS-15 and 90% normal saline at 30 mg/kg dose. Blood samples (approximately 60 μL) were collected under light isoflurane anesthesia from retro orbital plexus at 0.25, 0.5, 1, 2, 4 and 8 hr (IP and PO). Plasma samples were separated by centrifugation of whole blood and stored below −70° C. until bioanalysis. Immediately after collection of blood from intraperitoneal and oral group animals, animals were euthanized with excess CO2 and brain samples were collected from set of two mice at each time point. Brain samples were divided into two parts. Half brain samples were homogenized using ice-cold phosphate buffer saline (pH-7.4) and homogenates were stored below −70±10° C. until analysis. Total homogenate volume was three times the brain weight. Other part of brain was stored below −70±10° C. for further analysis. All samples were processed for analysis by protein precipitation using acetonitrile and analyzed with fit-for-purpose LC/MS/MS method (LLOQ-2.02 ng/mL for plasma and 6.06 ng/g for brain). Pharmacokinetic parameters were calculated using the non-compartmental analysis tool of Phoenix WinNonlin®.
Protocol B: Thirty six mice were included into the study and divided in to three groups as Group 1 (n=12), Group 2 (n=12) and Group 3 (n=12) with n=2 mice per time-point design. Animals in Group 1 were administered intravenously with solution formulation of PSY-05-00414-001 at 5 mg/kg dose. Animals in Group 2 were administered orally with solution formulation of PSY-05-00414-001 at a dose of 5 mg/kg. Animals in Group 3 were administered intraperitoneally with solution formulation of PSY-05-00414-001 at 5 mg/kg dose. The formulation vehicle for all the three groups was 5% NMP, 5% Solutol HS-15 and 90% normal saline. Blood samples (approximately 60 μL) were collected under light isoflurane anesthesia from two mice at 0.25, 0.5, 1, 2, 4 and 8 h. Plasma was harvested by centrifugation of blood and stored at −70±10° C. until analysis. After blood collection, brain was perfused and isolated at 0.25, 0.5, 1, 2, 4 and 8 h. Brain samples were dipped thrice in ice-cold phosphate buffer saline, blotted dry and cut in to two equal portion. Half-brain samples from each time-point were weighed and homogenized using ice-cold phosphate buffer saline with twice volume of brain weight making the total homogenate three volumes and stored below −70±10′° C. until analysis. Remaining half-portions of brain samples was snap freeze and kept in −70±10° C. until further confirmation from client. Plasma and brain samples were quantified by fit-for-purpose LC-MS/MS method (LLOQ: 1.01 ng/mL for plasma and 2.02 ng/mL for brain).
Protocol C: Fifty four male mice were included in study and divided in to three groups as Group 1 (n=18), Group 2 (n=18) and Group 3 (n=18) with 3 mice/time point design. […]

[2] abbreviates: Method 12: Reaction Biology MAGL enzyme prep, 15 nM enzyme.
Setting [3] is: Method 13: Reaction Biology MAGL enzyme prep, 12 nM enzyme.

Structures are written as SMILES. Where two headings read alike, the source gives them in different places.

Results on twelve molecules are retold here after US20250084065A1, “INHIBITING MONOACYLGLYCEROL LIPASE (MAGL)” (Psy Therapeutics, Inc., priority 2021, published 2025).

For `Cc1cc(C2CC3(C2)CN(C(=O)c2ccc(F)cc2OC2CC2)C3)n(-c2cc(F)ccc2C)n1` (single isomer, unassigned) [Compound 418, (2-cyclopropoxy-4-fluorophenyl){6-[1-(5-fluoro-2-tolyl)-3-methyl-5-pyrazolyl]-2-aza-2-spiro[3.3]heptyl}methanone], the IC50 at human MAGL (setting [2]) was in the range of 50 to 150 nM. Regarding `O=C(c1ccc(F)cc1OC1CC1)N1CC2(CC(n3nc(-c4ccccc4C(F)(F)F)cc3C(F)(F)F)C2)C1` (single isomer, unassigned) [Compound 451, (2-cyclopropoxy-4-fluorophenyl)(6-{5-(trifluoromethyl)-3-[o-(trifluoromethyl)phenyl]-1-pyrazolyl}-2-aza-2-spiro[3.3]heptyl)methanone], on human MAGL (Method 6: Reaction Biology MAGL enzyme prep, 6 nM enzyme), the IC50 lay in the range of 50 to 150 nM. For the same molecule, in data set [1], the AUC(0-t) (in general, exposure summed from dosing to a finite time, without extrapolation to infinity) amounted to 1200 ng·h/mL and the highest level (Cmax) was 271 ng/g.

Regarding `O=C(c1cc(O)ccc1F)N1CC2(CC(n3ncc(C(F)(F)F)c3-c3ccccc3F)C2)C1` (single isomer, unassigned) [Compound 472], the IC50 at human MAGL (setting [2]) was 50 to 150 nM. For the molecule `Cc1ccc(F)c(-c2c(C(F)(F)F)cnn2C2CC3(C2)CN(C(=O)c2cc(O)ccc2F)C3)c1` (single isomer, unassigned) [Compound 474, (2-fluoro-5-hydroxyphenyl)(6-(5-(2-fluoro-5-methylphenyl)-4-(trifluoromethyl)-1H-pyrazol-1-yl)-2-azaspiro[3.3]heptan-2-yl)methanone], the IC50 at human MAGL (setting [2]) lay in the range of 150 to 500 nM.

With `Cc1cnn(C2CC3(C2)CN(C(=O)c2cc(O)ccc2F)C3)c1-c1cc(F)ccc1F` (single isomer, unassigned) [Compound 476, (6-(5-(2,5-Difluorophenyl)-4-methyl-1H-pyrazol-1-yl)-2-azaspiro [3.3]heptan-2-yl) (2-fluoro-5-hydroxyphenyl) methanone], in data set [1], the AUC(0-t) was 224 ng·h/mL and the highest level (Cmax) was 72 ng/g. `Cc1ccc(F)cc1-n1nc(C2CC3(C2)CN(C(=O)c2ccc(F)cc2OC2CC2)C3)cc1C` (single isomer, unassigned) [Compound 482, (2-cyclopropoxy-4-fluorophenyl){6-[1-(5-fluoro-2-tolyl)-5-methyl-3-pyrazolyl]-2-aza-2-spiro[3.3]heptyl}methanone]: on human MAGL (setting [2]), the IC50 lay within 500 to 1000 nM. `Cc1ccc(F)cc1-c1cc(C2CC2)nn1C1CC2(C1)CN(C(=O)c1cc(O)ccc1F)C2` (single isomer, unassigned) [Compound 490, (6-(3-cyclopropyl-5-(5-fluoro-2-methylphenyl)-1H-pyrazol-1-yl)-2-azaspiro [3.3]heptan-2-yl) (2-fluoro-5-hydroxyphenyl) methanone]: the IC50 at human MAGL (setting [3]) was in the range of 50 to 150 nM. Still for that read-out and setting: the figure for `Cc1ccc(F)cc1-c1cc(C2CC2)n(C2CC3(C2)CN(C(=O)c2cc(O)ccc2F)C3)n1` (single isomer, unassigned) [Compound 491, (6-(5-cyclopropyl-3-(5-fluoro-2-methylphenyl)-1H-pyrazol-1-yl)-2-azaspiro [3.3]heptan-2-yl)(2-fluoro-5-hydroxyphenyl)methanone] is less than 50 nM. Take `O=C(c1cc(O)ccc1F)N1CC2(CC(n3ncc(C4CC4)c3-c3ccccc3F)C2)C1` (single isomer, unassigned) [Compound 492, (6-(4-Cyclopropyl-5-(2-fluorophenyl)-1H-pyrazol-1-yl)-2-azaspiro [3.3]heptan-2-yl) (2-fluoro-5-hydroxyphenyl) methanone]: at human MAGL (setting [2]), the IC50 lay in the range of 50 to 150 nM.

As for `O=C(c1cc(O)ccc1F)N1CC2(CC(n3nccc3-c3ccccc3C(F)(F)F)C2)C1` (single isomer, unassigned) [Compound 526, (2-fluoro-5-hydroxyphenyl)(6-(5-(2-(trifluoromethyl)phenyl)-1H-pyrazol-1-yl)-2-azaspiro [3.3]heptan-2-yl)methanone], the IC50 at human MAGL (setting [2]) lay within 50 to 150 nM. On to `Cc1cc(C2CC3(C2)CN(C(=O)c2cc(O)ccc2F)C3)n(-c2ccccc2C)n1` [Compound 74, (2-fluoro-5-hydroxyphenyl)(6-(3-methyl-1-(o-tolyl)-1H-pyrazol-5-yl)-2-azaspiro[3.3]heptan-2-yl)methanone], for which the “AUClast” value in data set [1] (30 mg/kg, Protocol A) was 116.52 ng·h/mL. As for `Cc1ccccc1-n1nccc1C1CC2(C1)CN(C(=O)c1cc(O)ccc1F)C2` [Compound 367, (2-fluoro-5-hydroxyphenyl) (6-(1-(o-tolyl)-1H-pyrazol-5-yl)-2-azaspiro [3.3]heptan-2-yl) methanone], on human MAGL (Method 14: Reaction Biology MAGL enzyme prep, 6 nM enzyme (Conc "0", Source "0")), the IC50 fell in the range of 50 to 150 nM.
